# Experimental data published in the supplement of paper PMC10307832.
# Assays:
# Assay in all cases: relative viability (nuclei count vs DMSO), 5 days (fraction); higher = more cells survive
# [1] = compound: COc1cc(Nc2ncc(F)c(Nc3ccc4c(n3)NC(=O)C(C)(C)O4)n2)cc(OC)c1OC [R406] + CC1(C)CCC(c2ccc(Cl)cc2)=C(CN2CCN(c3ccc(C(=O)NS(=O)(=O)c4ccc(N[C@H](CCN5CCOCC5)CSc5ccccc5)c(S(=O)(=O)C(F)(F)F)c4)cc3)CC2)C1 [Navitoclax] (partner 0.5 µM)
# How it was run: (§1)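 Medians of duplicate plates are given as relative viability. That measure is the nuclei count in treated wells divided by the count in vehicle wells. Counts were taken on 4× images of lung cancer cell lines in 1536-well plates, 5 days after pin-tool dosing the day after seeding with one drug alone or a fixed anchor-drug dose plus five library-drug doses (not always all listed) in √10 steps.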
# [2] = compound: COc1cc(Nc2ncc(F)c(Nc3ccc4c(n3)NC(=O)C(C)(C)O4)n2)cc(OC)c1OC [R406] + N=C(N)NC(=N)NCCc1ccccc1 [Phenformin] (partner 250 µM)
# How it was run: as §1
# [3] = compound: O=C(/C=C/c1cccnc1)NCCCCC1CCN(C(=O)c2ccccc2)CC1 [Daporinad] + CCNC(=O)c1noc(-c2cc(C(C)C)c(O)cc2O)c1-c1ccc(CN2CCOCC2)cc1 [Luminespib] (partner 0.01 µM)
# How it was run: as §1
# [4] = compound: O=C(/C=C/c1cccnc1)NCCCCC1CCN(C(=O)c2ccccc2)CC1 [Daporinad] + Cc1nc(NC(=O)N2CCC[C@H]2C(N)=O)sc1-c1ccnc(C(C)(C)C(F)(F)F)c1 [Alpelisib] (partner 2 µM)
# How it was run: as §1
Cell Line,relative viability ([1]; first compound 0.08 µM),relative viability ([1]; first compound 0.253 µM),relative viability ([1]; first compound 0.8 µM),relative viability ([1]; first compound 2.53 µM),relative viability ([1]; first compound 8 µM),relative viability ([2]; first compound 0.08 µM),relative viability ([2]; first compound 0.253 µM),relative viability ([2]; first compound 0.8 µM),relative viability ([2]; first compound 2.53 µM),relative viability ([2]; first compound 8 µM),relative viability ([3]; first compound 0.0005 µM),relative viability ([3]; first compound 0.001581 µM),relative viability ([3]; first compound 0.005 µM),relative viability ([3]; first compound 0.01581 µM),relative viability ([4]; first compound 0.0005 µM),relative viability ([4]; first compound 0.001581 µM),relative viability ([4]; first compound 0.005 µM),relative viability ([4]; first compound 0.01581 µM)
NCI-H1975,1.02,1.2,1.19,0.503,0.237,0.386,0.463,0.421,0.224,0.127,0.206,0.262,0.183,0.3,0.69,0.602,0.755,0.678
NCI-H1993,0.974,0.98,0.848,0.78,0.7,0.503,0.474,0.525,0.505,0.569,0.795,0.797,0.787,0.891,0.696,0.67,0.685,0.688
NCI-H2009,1.21,1.23,1.25,1.16,1.03,0.47,0.501,0.487,0.333,0.185,1.02,1.08,1,0.702,1.17,1.15,1.21,1.07
NCI-H2023,0.896,0.975,1.1,0.888,0.603,0.374,0.444,0.464,0.312,0.163,0.727,0.759,0.918,0.717,0.656,0.636,0.689,0.651
NCI-H2085,1.13,1.16,1.28,1.01,0.667,0.763,0.811,0.769,0.316,0.495,0.386,0.434,0.549,0.503,0.952,1.01,1.14,1.07
NCI-H2087,1.03,0.882,1.05,1.06,0.694,0.487,0.569,0.556,,0.406,0.178,0.177,0.154,0.159,1.07,1.36,1.14,0.928
NCI-H2126,0.88,0.83,0.829,0.8,0.64,0.527,0.554,0.516,0.529,0.359,0.883,0.897,0.921,0.924,0.734,0.758,0.777,0.813
NCI-H2170,0.524,0.54,0.662,0.294,0.516,0.405,0.414,0.44,0.316,0.372,0.817,0.722,0.417,0.734,0.811,0.825,0.795,0.839
NCI-H2228,1.17,1.33,0.996,0.628,0.168,0.318,0.383,0.312,0.106,0.0936,0.17,0.173,0.221,0.163,0.744,0.87,0.702,0.898
NCI-H2347,0.736,0.824,0.95,0.663,0.529,0.493,0.417,0.43,0.26,0.235,0.607,0.43,0.322,0.431,1.11,1.22,1.02,1.08
NCI-H2405,0.823,0.844,0.928,0.691,0.156,0.399,0.427,0.402,0.284,0.195,0.853,0.884,1.01,0.723,0.918,0.939,0.928,0.466
NCI-H3122,1.06,0.971,1.02,1.02,0.82,0.396,0.39,0.396,0.365,0.369,0.0688,0.0544,0.0785,0.0818,0.659,0.964,0.78,0.708
PC-3 [JPC-3],0.828,0.819,0.833,0.685,0.6,0.466,0.515,0.526,0.413,0.377,0.68,0.677,0.73,0.735,1.03,1.03,1.15,1.04
PC-14,1.01,1.05,1.04,0.984,0.836,0.602,0.951,0.746,0.332,0.12,,0.106,0.196,0.196,0.985,0.97,0.913,0.897
RERF-LC-KJ,1.09,0.64,1.03,0.738,0.842,0.43,0.415,0.41,0.362,0.286,1.22,1.4,1.18,1.07,0.811,0.893,0.88,0.98
SK-LU-1,0.483,1.2,0.725,0.385,0.145,0.597,0.608,0.628,0.175,0.0854,0.193,0.204,0.227,0.225,0.933,1.22,1.47,1.06
SK-MES-1,1.22,1.18,1.31,0.817,0.678,0.645,0.685,0.706,0.583,0.349,0.796,0.839,0.874,0.819,0.841,0.894,0.947,1.03
